Consider 21 molecules from patent US20250243343A1, “LUBRICANT COMPOSITION FOR PREPARING ETHYLENE-BASED POLYMER AND METHOD OF PREPARING ETHYLENE-BASED POLYMER USING THE SAME” (SK INNOVATION CO., LTD., priority 2024, published 2025).

A short description of data set [1]: Acrylic acid self-polymerization (time until PAA formation). To be noted: for Polymerization time: oil:stabilizer 100:0.5, AA:lubricant composition 1:1 by weight, 100° C.; for polymerization stability time / PAA formation inhibition effect (in words): Table 1.
Method: The reactor was heated to 100° C., followed by observing whether a self-polymer (PAA) was formed in the reactor every 10 minutes. As soon as the PAA was observed visually, the experiment was stopped and a polymerization time was recorded.
The nature of data set [2]: Measurement of solubility of the oxidation stabilizer in white mineral oil (visual observation). To be noted: Table 1.
Method: A lubricant composition was prepared by mixing a white mineral oil and the oxidation stabilizer of Table 1 below in a weight ratio of 100:0.1.
The lubricant composition was left for 1 hour and observed visually. If precipitation occurred or the lubricant composition discolored or became opaque, it was evaluated as “X.” When no precipitation occurred and the lubricant composition was colorless and transparent, it was evaluated as “O.”
Setting [3] is: nitrogen atmosphere, PAA observed visually every 10 minutes.

In the case of `CCc1cc(C(C)(C)C)c(O)c(C(C)(C)C)c1` [B-14, 2,6-Di-tert-butyl-4-ethylphenol], in data set [1] (class symbol), the Polymerization time result was “— (When the PAA was formed within 10 minutes, it was evaluated as “-.”)”. bis(nonylphenyl)amine [B-16] had a Polymerization time in data set [1] (setting [3]) of 0.667 h.

Take `CC(C)(C)CC(C)(C)c1cc(O)c(C(C)(C)CC(C)(C)C)cc1O` [B-11, 2,5-Bis(1,1,3,3-tetramethylbutyl) hydroquinone]: the Polymerization time in data set [1] (setting [3]) was found to be 2 h. For `CCCCCCCCSc1nc(Nc2cc(C(C)(C)C)c(O)c(C(C)(C)C)c2)nc(SCCCCCCCC)n1` [B-19], in data set [1] (setting [3]), the Polymerization time is 0.333 h. In turn, `CCc1cc(Cc2cc(CC)cc(C(C)(C)C)c2O)c(O)c(C(C)(C)C)c1` [B-10, 2,2′-Methylenebis(6-tert-butyl-4-ethylphenol)] registered a Polymerization time in data set [1] (setting [3]) of 0.333 h. Turning to `CC(C)(C)c1cc(CCC(=O)OCCSCCOC(=O)CCc2cc(C(C)(C)C)c(O)c(C(C)(C)C)c2)cc(C(C)(C)C)c1O` [B-13, 2,2″-Thiodiethylene Bis [3-(3,5-di-tert-butyl-4-hydroxyphenyl) propionate]], in data set [1] (class symbol), the Polymerization time result is given as “— (When the PAA was formed within 10 minutes, it was evaluated as “-.”)”. Take `CC(C)(C)c1cc(C(=O)O)cc(C(C)(C)C)c1O` [B-7, 3,5-Di-tert-butyl-4-hydroxybenzoic acid]: the Polymerization time in data set [1] (setting [3]) was determined as 0.333 h. In data set [1] (setting [3]), `COc1ccc(O)c(C(C)(C)C)c1` [A-3, 3-tert-butyl-4-hydroxyanisole] gave a Polymerization time of 72 h.

`c1ccc2c(c1)Nc1ccccc1S2` [B-3, Phenothiazine]: the “solubility in the white mineral oil (in words)” value (“solubility” for short) in data set [2] is recorded as “not substantially dissolved”. In addition, in data set [1] (setting [3]), the Polymerization time was greater than 150 h.

On to `CCCCCCCCOc1ccc(C(=O)c2ccccc2)c(O)c1` [B-18, 2-hydroxy-4-n-octyloxybenzophenone], for which, in data set [1] (setting [3]), the Polymerization time came to 0.333 h. In the case of `Cc1cc(C(C)(C)C)c(O)c(C(C)(C)C)c1` [B-1, Butylated hydroxytoluene], the “polymerization stability time / PAA formation inhibition effect (in words)” value in data set [1] is given as “greatly reduced”. Also, in data set [1] (setting [3]), the Polymerization time was found to be 2 h. The molecule `COc1cc(C(C)(C)C)c(O)c(C(C)(C)C)c1` [A-2, 2,6-Di-tert-butyl-4-methoxyphenol] returned a Polymerization time in data set [1] (setting [3]) of 23 h.

For `CC(C)(C)c1cccc(C(C)(C)C)c1O` [B-5, 2,6-Di-tert-butylphenol], the Polymerization time entry in data set [1] (class symbol) is given as “— (When the PAA was formed within 10 minutes, it was evaluated as “-.”)”. For the molecule `COc1ccc(O)c(C(C)(C)C)c1` [A-1, Butylated hydroxyanisole], the “solubility” value in data set [2] was “high”. Also, the “polymerization stability time / PAA formation inhibition effect (in words)” value in data set [1] was “greatly increased”. Also, the Polymerization time in data set [1] (setting [3]) was greater than 150 h.

In data set [1] (setting [3]), `CC(C)(C)c1cc(CO)cc(C(C)(C)C)c1O` [B-6, 2,6-Di-tert-butyl-4-hydroxymethylphenol] came in with a Polymerization time of 2 h. Still for that read-out and setting: the figure for `Cc1c(C)c2c(c(C)c1O)CC[C@@](C)(CCC[C@H](C)CCC[C@H](C)CCCC(C)C)O2` [B-4, Vitamin E] is 0.5 h; for `CCOP(=O)(Cc1cc(C(C)(C)C)c(O)c(C(C)(C)C)c1)OCC` [B-8, Diethyl 3,5-Di-tert-butyl-4-hydroxybenzylphosphonate] it is 0.333 h; for `CCC(C)(C)c1ccc(O)c(C(C)(C)CC)c1` [B-9, 2,4-Di-tert-amylphenol] it is 2 h. The same measure, in the same setting: then `CC(C)(C)c1cc(O)c(O)c(C(C)(C)C)c1` [B-17, 3,5-Di-tert-butylcatechol], with 5 h. Take `COc1ccc(O)cc1` [B-2, 4-Methoxyphenol]: the “solubility” value in data set [2] is “greatly decreased”. Also, the Polymerization time in data set [1] (setting [3]) is greater than 150 h. In the case of `CCCCCCCCSc1nc(Nc2cc(C(C)(C)C)c(O)c(C(C)(C)C)c2)nc(SCCCCCCCC)n1` [B-12], the Polymerization time entry in data set [1] (class symbol) was “— (When the PAA was formed within 10 minutes, it was evaluated as “-.”)”.
